In brackets after ≈: the same amount, converted by molar mass. Read-outs that look alike come from different tables or passages of the source.

Data set [1] has as its system Mutant-12 of Enterococcus fecalis NR 31975. The experiment in a line: microbe, parasite or virus in culture. In kind it is cell-based.
Data set [2] deals with Caco-2 cells. Kind of data set: In vitro cytotoxicity, MTS assay. Conditions: concentration up to 128 μg/mL; two hours incubation. As to the method:
Method: Compounds AS005H, AS005J, AS004B, AS005K, AS005A and 005D were assayed (at concentrations of 64 and 128 μg/mL) against a human colorectal adenocarcinoma (Caco-2) cell to determine the potential toxic effect to mammalian cells in vitro. Briefly, cells were cultured in Dulbecco's Modified Eagle Medium (DMEM) supplemented with 20% fetal bovine serum (FBS), non-essential amino acids (1×), penicillin-streptomycin at 37° C. with CO2 (5%). Control cells received DMSO alone at a concentration equal to that in drug-treated cell samples. The cells were incubated with the compounds (in triplicate) in a 96-well plate at 37° C. with CO2 (5%) for two hours. The assay reagent MTS 3-(4,5-dimethylthiazol-2-yl)-5-(3-carboxymethoxyphenyl)-2-(4-sulfophenyl)-2H-tetrazolium) (Promega, Madison, WI, USA) was subsequently added and the plate was incubated for four hours. Absorbance readings (at OD490) were taken using a kinetic microplate reader (Molecular Devices, Sunnyvale, CA, USA). The quantity of viable cells after treatment with each compound was expressed as a percentage of the viability of DMSO-treated control cells (average of triplicate wells±standard deviation). The toxicity data was analyzed via a two-way ANOVA, with post hoc Dunnet's multiple comparisons test (P<0.05), utilizing GraphPad Prism 6.0 (GraphPad Software, La Jolla, CA).
Percent viable mammalian cells (measured as average absorbance ratio (test agent relative to DMSO) for cytotoxicity analysis of AS005H, AS005J, AS004B, AS005K, AS005A and 005D compounds (tested in triplicate) at 64 and 128 μg/mL against Caco-2 cells using the MTS 3-(4,5-dimethylthiazol-2-yl)-5-(3-carboxymethoxyphenyl)-2-(4-sulfophenyl)-2H-tetrazolium) assay. Dimethyl sulfoxide (DMSO) was used as a negative control to determine a baseline measurement for the cytotoxic impact of each compound. The absorbance values represent an average of a minimum of three samples analyzed for each compound. Error bars represent standard deviation values for the absorbance values. A two-way ANOVA, with post hoc Dunnet's multiple comparisons test, determined statistical difference (denoted by the asterisk) (P<0.05) between the values obtained for each compound and DMSO (negative control, used as solvent for the compounds).
(Tetrazolium assays rely on reduction of a dye to a coloured formazan, in cell work by metabolically active cells.)

Data set [3] concerns VERO cells. The experiment in a line: In vitro cytotoxicity, MTS assay. The note with it: concentration up to 128 μg/mL; two hours incubation. Format: cell-based, monkey. As to the method:
Toxicity assessment: Compounds AS005H, AS005J, AS004B, AS005K, AS005A and 005D were assayed (at concentrations of 64 and 128 μg/mL) against a fibroblast-like monkey kidney cell line (VERO cell) to determine the potential toxic effect in vitro. Briefly, cells were cultured in Minimum Essential Medium (MEM) supplemented with 10% fetal bovine serum (FBS), 1 mM sodium pyruvate, and penicillin-streptomycin at 37° C. with CO2 (5%). Control cells received DMSO alone at a concentration equal to that in drug-treated cell samples. The cells were incubated with the compounds (in triplicate) in a 96-well plate at 37° C. with CO2 (5%) for two hours. The assay reagent MTS 3-(4,5-dimethylthiazol-2-yl)-5-(3-carboxymethoxyphenyl)-2-(4-sulfophenyl)-2H-tetrazolium) (Promega, Madison, WI, USA) was subsequently added and the plate was incubated for four hours. Absorbance readings (at OD490) were taken using a kinetic microplate reader (Molecular Devices, Sunnyvale, CA, USA). The quantity of viable cells after treatment with each compound was expressed as a percentage of the viability of DMSO-treated control cells (average of triplicate wells±standard deviation). The toxicity data was analyzed via a two-way ANOVA, with post hoc Dunnet's multiple comparisons test (P<0.05), utilizing GraphPad Prism 6.0 (GraphPad Software, La Jolla, CA).
Percent viable mammalian cells (measured as average absorbance ratio (test agent relative to DMSO) for cytotoxicity analysis of compounds AS005H, AS005J, AS004B, AS005K, AS005A and 005D (tested in triplicates) at 64 and 128 μg/mL against VERO cells using the MTS 3-(4,5-dimethylthiazol-2-yl)-5-(3-carboxymethoxyphenyl)-2-(4-sulfophenyl)-2H-tetrazolium) assay. Dimethyl sulfoxide (DMSO) was used as a negative control to determine a baseline measurement for the cytotoxic impact of each compound. The absorbance values represent an average of a minimum of three samples analyzed for each compound. Error bars represent standard deviation values for the absorbance values.

Data set [4] relates to Enterococcus fecalis Strain MMH594 - NR31975. Kind of data set: microbe, parasite or virus in culture. In kind it is cell-based. The note with it: Enterococcus, Table 4; Wild-type E. fecalis NR 31975. Here is the method: (§1) The minimum inhibitory concentrations (MICs) of the compounds and control drugs were determined using the broth microdilution method, according to guidelines outlined by the Clinical and Laboratory Standards Institute (CLSI). Enterococci strains were grown aerobically overnight on tryptone soya agar plates at 37° C., afterwards a bacterial solution equivalent to 0.5 McFarland standard was prepared and diluted in tryptone soy broth (TSB) to achieve a bacterial concentration of about 5×10^5 CFU/mL and seeded in 96-well well plates. Compounds and control drugs were added in the first row of the 96-well plates and serially diluted along the plates. Plates were then incubated aerobically at 37° C. for 18-20 hours. MICs reported in Table 1 are the minimum concentration of the compounds/control drugs that could inhibit completely the visual growth of the bacteria.

Data set [5] has as its system Mutant-2 of Enterococcus fecalis NR 31975. The experiment in a line: microbe, parasite or virus in culture. Format: cell-based.
The test system of data set [6] is Enterococcus faecium Patient #3-1 NR-31912. The experiment in a line: MIC, broth microdilution (CLSI). In kind it is cell-based. The note with it: Enterococcus faecium, TSB, read-out: MIC. As to the method: as §1
A general note: In broth dilution the organism is exposed to a series of concentrations in liquid medium.

Data set [7] relates to Enterococcus fecalis Strain SF 28073 - NR31972. The experiment in a line: MIC, broth microdilution (CLSI). Format: cell-based. Conditions: Enterococcus, TSB, read-out: MIC. Here is the method: as §1
Data set [8] has as its system Enterococcus fecalis Strain SF24413 NR31971. The experiment in a line: MIC, broth microdilution (CLSI). In kind it is cell-based. Conditions: Enterococcus, TSB, read-out: MIC. As to the method: as §1
Data set [9] relates to Mutant-7 of Enterococcus fecalis NR 31975. Kind of data set: microbe, parasite or virus in culture. Format: cell-based.

Regarding `CC(C)=CC(=O)Nc1nnc(S(N)(=O)=O)s1` [CAI0016, 3-Methyl-N-(5-sulfamoyl-1,3,4-thiadiazol-2-yl)but-2-enamide], the MIC worked out at 8 mg/L (≈ 30.5 µM) in data set [1]; 1 mg/L (≈ 3.81 µM) in data set [4]; 8 mg/L (≈ 30.5 µM) in data set [5]; 1 mg/L (≈ 3.81 µM) in [6] (Table 1); 0.5 mg/L (≈ 1.91 µM) in [6] (Table 7); 0.5 mg/L (≈ 1.91 µM) in data set [7] (Table 1). The MIC amounted to 0.5 mg/L (≈ 1.91 µM) in data set [7] (Table 7), 0.5 mg/L (≈ 1.91 µM) in [8] (Table 1), 0.5 mg/L (≈ 1.91 µM) in [8] (Table 7) and 4 mg/L (≈ 15.2 µM) in data set [9]. The “toxicity to Caco-2 cells (percent viable cells, MTS)” value in data set [2] is recorded as “non-toxic”. For the same compound, the “toxicity to VERO cells (percent viable cells, MTS)” value in data set [3] was “non-toxic”.

These data come from patent publication US20250328351A1, “CARBONIC ANHYDRASE INHIBITORS AND ANTIBIOTICS AGAINST MULTIDRUG RESISTANT BACTERIA” (Purdue Research Foundation, priority 2018, published 2025).
